According to PubChem BioAssay AID1053130 (The Scripps Research Institute Molecular Screening Center, 2014):
The source made the active and inactive calls. No rule for the calls is given here.

Tested on: Jurkat cell viability, ATP luminescence
Assay: viability loss in human Jurkat cells – cell-based, luminescence, round 3, cytotoxicity control for T. brucei MetRS inhibitor project, late-stage follow-up (AID 1053130)

| SMILES | IC50 |
| --- | --- |
| O=C(Cn1cc(C(=O)C(=O)NCc2ccccc2)c2ccccc21)Nc1cc(Oc2ccccc2)cc(C(F)(F)F)c1 | 63.9 µM (inactive) |
| Nc1c(Cl)ncnc1Nc1ccc(C(=O)O)cc1 | > 83.3 µM (inactive) |
| CCN(CC)C(=O)C(=O)c1cn(CCNc2cc(Oc3ccccc3)cc(C(F)(F)F)c2)c2ccccc12 | 34.8 µM (inactive) |
| CCN(CC)C(=O)C(=O)c1cn(CC(=O)Nc2cc(Oc3ccccc3OC)cc(C(F)(F)F)c2)c2ccccc12 | > 83.3 µM (inactive) |
| CCN(CC)C(=O)C(=O)c1cn(CC(=O)Nc2cccc(C(F)(F)F)c2)c2ccccc12 | 57.2 µM (inactive) |
| CCN(CC)C(=O)C(=O)c1cn(CC(=O)Nc2cc(Oc3ccccc3)cc(C(F)(F)F)c2)c2ccccc12 | 21 µM (inactive) |
| CCN(CC)C(=O)C(=O)c1cn(CCNc2cccc(C(F)(F)F)c2)c2ccccc12 | 41.1 µM (inactive) |
| O=C(Cc1ccc(Nc2nc3ccc(Br)cc3[nH]2)cc1)NCCc1cccs1 | > 27.8 µM (inactive) |
| CCN(CC)C(=O)C(=O)c1cn(CC(=O)Nc2cc(Oc3ccc(OC)cc3)cc(C(F)(F)F)c2)c2ccccc12 | 11.3 µM (inactive) |
| CCN(CC)C(=O)C(=O)c1cn(CC(=O)Nc2cc(Oc3ccc(F)cc3)cc(C(F)(F)F)c2)c2ccccc12 | 50.1 µM (inactive) |
| CCN(CC)C(=O)Cc1cn(CC(=O)Nc2cccc(C(F)(F)F)c2)c2ccccc12 | > 83.3 µM (inactive) |
| CCN(CC)C(=O)C(=O)c1cn(CC(=O)Nc2cc(Oc3ccccc3F)cc(C(F)(F)F)c2)c2ccccc12 | > 83.3 µM (inactive) |
